Target: T1, Human GPR120 short form (Homo sapiens, UniProt Q5NUL3)
T1 construct: expressed in transfected cells
T1 sequence (Q5NUL3 1-361): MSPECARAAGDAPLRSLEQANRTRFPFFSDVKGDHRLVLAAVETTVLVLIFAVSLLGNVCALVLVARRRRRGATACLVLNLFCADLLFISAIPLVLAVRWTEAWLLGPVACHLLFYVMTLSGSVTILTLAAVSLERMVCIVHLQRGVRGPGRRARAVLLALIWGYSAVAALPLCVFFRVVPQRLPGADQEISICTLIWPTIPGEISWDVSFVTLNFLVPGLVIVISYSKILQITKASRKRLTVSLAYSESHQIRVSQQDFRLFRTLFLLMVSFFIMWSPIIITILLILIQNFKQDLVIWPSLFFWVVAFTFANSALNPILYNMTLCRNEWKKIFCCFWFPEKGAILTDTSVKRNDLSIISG
Experiment: Human GPR120 calcium flux assay (FLIPR), Procedure Calcium A
Format: cell-based
Conditions: HEK-293 cells expressing human GPR120 short form, 2500 cells/well; read-out: GPR120 Ca2+ Assay A EC50
Text: This in vitro assay serves to assess test compound agonist activity against the short splice variant (SVS with Accession number NM_001195755.1 confirmed by sequencing data) of the GPR120 receptor. The Human Short splice variant #2 (NM_001195755.1) is missing an in-frame coding exon compared to variant 1 (the Human Long splice variant NM_181745.3), resulting in a shorter isoform (GPR120-S) lacking a 16 aa protein segment compared to isoform GPR120-L. The assay platform utilizes HEK-293 cells stably transfected to express the Human GPR120 short form. These cells are first loaded with the Ca^+2 sensitive dye, Fluo-4 NW. Upon stimulation, intracellular released Ca^+2 can bind to the dye and alter its fluorescence intensity. This increase in fluorescence signal, and thus the flux in intracellular [Ca^2+], is detected and quantitated by fluorescence imaging using a FLIPR reader. The effect of the agonist is measured as a function of concentration and used to calculate an EC50 based upon a response curve.
In this procedure 2500 cells/well were employed.
A Human GPR120 clone (Genbank accession number NM_001195755.1) was placed into the pcDNA3.1 mammalian expression vector carrying the neomycin resistance gene. A stable mammalian cell was generated by placing the above clone into a HEK293 background. Clonal cells responding to long chain fatty acids had expression levels of GPR120 confirmed by RT-qPCR. Human HEK-GPR120 cells were cultured in Dulbecco's Modified Eagle's Medium (DMEM)/F12 medium supplemented with 10% fetal bovine serum (FBS), 1% L-Glutamine and 1% penicillin/streptomycin and 0.5 mg/ml G-418. Cells were split 2 times a week to keep the cells in the log-phase growth.
In preparation for the assay, HEK cells stably transfected with Human GPR120 (2.5K cells per well in 25 uL growth medium) were seeded into 384-well plates and then incubated overnight (37° C., 5% CO2). The next day, the media was changed to 20 μL assay buffer and the cell starved for 1 h at 37° C. The dye loading solution (2× dye) was prepared using 10 mL assay buffer, 100 μL of 250 mM probenecid, 1 bottle of Component A, and 20 μl of dye in DMSO. Twenty μL of the 2× dye loading buffer was then added to each well. The plates were incubated at 37° C. for 30 min, then at room temperature for an additional 15 minutes, before performing the assay on FLIPR. Test compounds were prepared in assay buffer (2 uL of cpd+198 uL assay buffer, final DMSO in assay plate is 0.2%) at the desired concentration, more particularly at 100, 50, 25, 12.5, 6.25, 3.125, 1.562, 0.781, 0.391, 0.195, 0.098, 0.049, 0.024 and 0.012 μM.
The assay was performed on a FLIPR plate reader using the following parameters. Baseline was read for 10 seconds at 1 sec intervals. The program was set to transfer 10 μL of ligand from compound plate to cell plate after baseline reading. Aspiration was executed at: 10 μL/sec speed, 4.6 μL height; Dispensing was executed at: 30 μL/sec speed, 45 μL height. After compound addition, each well was read for 300 sec, with measurements collected at 1 sec intervals.
The kinetic data from the FLIPR was based upon a 5 minute window for data collection. The fluorescence of each sample well was used for individual calculations of a normalized RFU value, which was defined as maximum response minus the minimum response. The normalized fluorescence reading (RFU) was calculated as follows: RFU=Fmax−Fmin The data were fitted to a sigmoidal dose-response curve with a variable Hill slope (<2) using nonlinear regression with GraphPad Prism 5.0 to calculate the EC50 values. The Fitting Equation was: Y=Bottom+(Top−Bottom)/(1+10^((Log EC50−X)*HillSlope)), where X is the log of the concentration and Y is the response.

SMILES | EC50
O=C(O)CCc1cc(F)c(OCc2csnc2-c2ccc(Cl)s2)c(F)c1 [Cpd 202, 3-(4-((3-(5-chlorothiophen-2-yl)isothiazol-4-yl)methoxy)-3,5-difluorophenyl)propanoic acid] | 468 nM
Cc1c(CCC(=O)O)ccc(OCc2csnc2-c2ccc(Cl)s2)c1C [Cpd 204, 3-(4-((3-(5-chlorothiophen-2-yl)isothiazol-4-yl)methoxy)-2,3-dimethylphenyl)propanoic acid] | 496 nM
Cc1cc(OCc2c(-c3c(F)cc(Cl)cc3F)nsc2C(F)(F)F)c(F)cc1CCC(=O)O [Cpd 207, 3-(4-((3-(4-chloro-2,6-difluorophenyl)-5-(trifluoromethyl)isothiazol-4-yl)methoxy)-5-fluoro-2-methylphenyl)propanoic acid] | 566 nM
Cc1ccc(-c2snc(-c3ccccc3)c2COc2c(F)cc(CCC(=O)O)cc2F)c(F)c1 [Cpd 211, 3-(3,5-difluoro-4-[[5-(2-fluoro-4-methylphenyl)-3-phenyl-1,2-thiazol-4-yl]methoxy]phenyl)propanoic acid] | 597 nM
O=C(O)CCc1cc(F)c(OCc2c(C3CCOC3)nsc2C(F)(F)F)c(F)c1 (stereo not shown) [Cpd 214, 3-(3,5-difluoro-4-((3-(tetrahydrofuran-3-yl)-5-(trifluoromethyl)isothiazol-4-yl)methoxy)phenyl)propanoic acid] | 606 nM
CCc1ccc(-c2nsc(CC)c2COc2ccc(CCC(=O)O)c(C)c2C)cc1 [Cpd 217, 3-(4-[[5-ethyl-3-(4-ethylphenyl)-1,2-thiazol-4-yl]methoxy]-2,3-dimethylphenyl)propanoic acid] | 677 nM
CCCc1ccc(-c2snc(Cl)c2COc2ccc(CCC(=O)O)c(C)c2C)cc1 [Cpd 218, 3-(4-[[3-chloro-5-(4-propylphenyl)-1,2-thiazol-4-yl]methoxy]-2,3-dimethylphenyl)propanoic acid] | 688 nM
CCc1ccc(-c2nsc(C(F)(F)F)c2COc2ccc3c(c2)OCC3CCO)cc1 (stereo not shown) [Cpd 220, 2-(6-[[3-(4-ethylphenyl)-5-(trifluoromethyl)-5H-1[3],2-thiazol-4-yl]methoxy]-2,3-dihydro-1-benzofuran-3-yl)ethan-1-ol] | 702 nM
O=C(O)CCc1ccc(OCc2csnc2-c2ccc(Cl)s2)c(F)c1F [Cpd 226, 3-(4-((3-(5-chlorothiophen-2-yl)isothiazol-4-yl)methoxy)-2,3-difluorophenyl)propanoic acid] | 849 nM
CCc1ccc(-c2nsc(OC)c2COc2ccc(CCC(=O)O)c(C)c2C)cc1 [Cpd 228, 3-(4-[[3-(4-ethylphenyl)-5-methoxy-1,2-thiazol-4-yl]methoxy]-2,3-dimethylphenyl)propanoic acid] | 923 nM
Cc1ccc(-c2snc(C(F)(F)F)c2COc2ccc(CCC(=O)O)c(C(F)(F)F)c2)c(C)c1 [Cpd 232, 3-(4-[[5-(2,4-dimethylphenyl)-3-(trifluoromethyl)-1,2-thiazol-4-yl]methoxy]-2-(trifluoromethyl)phenyl)propanoic acid] | 1090 nM
CCc1ccc(-c2nsc(-c3ccccc3)c2COc2ccc(CCC(=O)O)c(C)c2C)cc1 [Cpd 233, 3-(4-[[3-(4-ethylphenyl)-5-phenyl-1,2-thiazol-4-yl]methoxy]-2,3-dimethylphenyl)propanoic acid] | 1100 nM
CCc1ccc(-c2nsc(C(F)(F)F)c2COc2ccc(CCC(=O)O)c(C(F)(F)F)c2C)cc1 [Cpd 242, 3-(4-[[3-(4-ethylphenyl)-5-(trifluoromethyl)-1,2-thiazol-4-yl]methoxy]-3-methyl-2-(trifluoro-methyl)phenyl)propanoic acid] | 1290 nM

Now those with a lower EC50, led by results:

EC50 | SMILES
188 nM | CCc1ccc(-c2nsc(C(F)(F)F)c2COc2ccc(CCC(=O)O)c(F)c2C(F)(F)F)cc1 [Cpd 157, 3-(4-[[3-(4-ethylphenyl)-5-(trifluoromethyl)-1,2-thiazol-4-yl]methoxy]-2-fluoro-3-(trifluoromethyl)phenyl)propanoic acid]
191 nM | CCc1ccc(-c2sncc2COc2ccc(CCC(=O)O)c(C)c2C)cc1 [Cpd 158, 3-(4-[[5-(4-ethylphenyl)-1,2-thiazol-4-yl]methoxy]-2,3-dimethylphenyl)propanoic acid]
202 nM | C#Cc1ccc(-c2nscc2COc2ccc(CCC(=O)O)c(C)c2C)cc1 [Cpd 161, 3-(4-((3-(4-ethynylphenyl)isothiazol-4-yl)methoxy)-2,3-dimethylphenyl)propanoic acid]
203 nM | CCc1ccc(-c2nsc(C(F)(F)F)c2COc2c(F)cc(C3CC3C(=O)O)cc2F)cc1 (stereo not shown) [Cpd 163, 2-(4-[[3-(4-ethylphenyl)-5-(trifluoromethyl)-1,2-thiazol-4-yl]methoxy]-3,5-difluorophenyl)cyclopropane-1-carboxylic acid]
261 nM | CCc1ccc(-c2nsc(C(F)(F)F)c2COc2ccc3c(c2)CCC3CC(=O)O)cc1 (stereo not shown) [Cpd 176, 2-(5-[[3-(4-ethylphenyl)-5-(trifluoromethyl)-1,2-thiazol-4-yl]methoxy]-2,3-dihydro-1H-inden-1-yl)acetic acid]
263 nM | COc1cc(-c2nsc(C(F)(F)F)c2COc2c(F)cc(CCC(=O)O)cc2F)ccc1Cl [Cpd 177, 3-(4-((3-(4-chloro-3-methoxyphenyl)-5-(trifluoromethyl)isothiazol-4-yl)methoxy)-3,5-difluorophenyl)propanoic acid]
263 nM | Cc1c(CCC(=O)O)ccc(OCc2c(-c3ccc(C(C)(F)F)cc3)nsc2C(F)(F)F)c1C [Cpd 178, 3-[4-([3-[4-(1,1-difluoroethyl)phenyl]-5-(trifluoromethyl)-1,2-thiazol-4-yl]methoxy)-2,3-dimethylphenyl]propanoic acid]
281 nM | COc1ccc(-c2snc(OC)c2COc2c(F)cc(CCC(=O)O)cc2F)cc1 [Cpd 182, 3-(3,5-difluoro-4-[[3-methoxy-5-(4-methoxyphenyl)-1,2-thiazol-4-yl]methoxy]phenyl)propanoic acid]
303 nM | COc1ccc(-c2snc(Cl)c2COc2ccc(CCC(=O)O)c(C)c2C)cc1 [Cpd 186, 3-(4-[[3-chloro-5-(4-methoxyphenyl)-1,2-thiazol-4-yl]methoxy]-2,3-dimethylphenyl)propanoic acid]
332 nM | CCc1ccc(-c2nsc(C(F)(F)C(F)(F)F)c2COc2ccc(CCC(=O)O)c(C)c2C)cc1 [Cpd 192, 3-(4-[[3-(4-ethylphenyl)-5-(pentafluoroethyl)-1,2-thiazol-4-yl]methoxy]-2,3-dimethylphenyl)propanoic acid]
453 nM | CCc1ccc(-c2nsc(C(C)(F)F)c2COc2ccc(CCC(=O)O)c(C)c2C)cc1 [Cpd 200, 3-(4-[[5-(1,1-difluoroethyl)-3-(4-ethylphenyl)-1,2-thiazol-4-yl]methoxy]-2,3-dimethylphenyl)propanoic acid]
450 nM | O=C(O)CCc1cc(Br)c(OCc2c(-c3ccc(Cl)cc3)nsc2C(F)(F)F)c(Br)c1 [Cpd 241, 3-(3,5-dibromo-4-[[3-(4-chlorophenyl)-5-(trifluoromethyl)-1,2-thiazol-4-yl]methoxy]phenyl) propanoic acid]

Source: US9067898B1, “Isothiazole derivatives as GPR120 agonists for the treatment of type II diabetes” (Janssen Pharmaceutica NV, priority 2014, dated 2015)
